Experiments:
Assay in all cases: Enzyme Assay
[1] = biological target: PIK3CA (human) (UniProt P42336)
[2] = biological target: PIK3CB (Human) (UniProt P42338)
[3] = biological target: PIK3CD (Human) (UniProt O00329)
[4] = biological target: PIK3CG (human) (UniProt P48736)
Chain of PIK3CG (human) (P48736 whole entry, looked up): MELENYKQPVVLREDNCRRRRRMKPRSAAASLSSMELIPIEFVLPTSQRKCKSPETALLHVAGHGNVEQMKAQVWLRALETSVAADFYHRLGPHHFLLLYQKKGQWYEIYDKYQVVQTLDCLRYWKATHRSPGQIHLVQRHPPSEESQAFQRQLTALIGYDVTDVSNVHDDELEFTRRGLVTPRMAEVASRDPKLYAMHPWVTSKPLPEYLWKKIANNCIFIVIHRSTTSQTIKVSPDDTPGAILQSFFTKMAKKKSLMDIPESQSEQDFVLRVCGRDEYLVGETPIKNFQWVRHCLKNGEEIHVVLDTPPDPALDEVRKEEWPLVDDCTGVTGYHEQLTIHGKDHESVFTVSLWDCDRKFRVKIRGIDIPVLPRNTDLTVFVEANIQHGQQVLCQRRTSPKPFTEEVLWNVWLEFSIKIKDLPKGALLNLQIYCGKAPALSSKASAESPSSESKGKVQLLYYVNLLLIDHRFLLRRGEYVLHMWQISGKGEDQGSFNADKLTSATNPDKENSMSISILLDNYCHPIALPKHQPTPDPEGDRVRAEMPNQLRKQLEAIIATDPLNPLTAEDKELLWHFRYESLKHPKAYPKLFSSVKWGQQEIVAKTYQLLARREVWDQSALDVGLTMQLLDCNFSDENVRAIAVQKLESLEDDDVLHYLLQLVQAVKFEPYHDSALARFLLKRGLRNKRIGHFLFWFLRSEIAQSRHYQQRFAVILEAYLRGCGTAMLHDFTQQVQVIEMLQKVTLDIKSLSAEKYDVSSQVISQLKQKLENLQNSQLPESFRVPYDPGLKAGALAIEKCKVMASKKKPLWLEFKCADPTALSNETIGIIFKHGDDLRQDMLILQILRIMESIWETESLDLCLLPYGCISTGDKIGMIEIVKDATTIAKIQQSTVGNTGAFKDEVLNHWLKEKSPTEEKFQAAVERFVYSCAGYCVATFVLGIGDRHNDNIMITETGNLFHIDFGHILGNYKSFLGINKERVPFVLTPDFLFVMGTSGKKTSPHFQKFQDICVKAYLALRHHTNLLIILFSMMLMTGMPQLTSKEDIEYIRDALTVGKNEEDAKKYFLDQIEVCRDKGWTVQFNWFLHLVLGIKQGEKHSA

Chain of PIK3CA (human) (P42336 whole entry, looked up): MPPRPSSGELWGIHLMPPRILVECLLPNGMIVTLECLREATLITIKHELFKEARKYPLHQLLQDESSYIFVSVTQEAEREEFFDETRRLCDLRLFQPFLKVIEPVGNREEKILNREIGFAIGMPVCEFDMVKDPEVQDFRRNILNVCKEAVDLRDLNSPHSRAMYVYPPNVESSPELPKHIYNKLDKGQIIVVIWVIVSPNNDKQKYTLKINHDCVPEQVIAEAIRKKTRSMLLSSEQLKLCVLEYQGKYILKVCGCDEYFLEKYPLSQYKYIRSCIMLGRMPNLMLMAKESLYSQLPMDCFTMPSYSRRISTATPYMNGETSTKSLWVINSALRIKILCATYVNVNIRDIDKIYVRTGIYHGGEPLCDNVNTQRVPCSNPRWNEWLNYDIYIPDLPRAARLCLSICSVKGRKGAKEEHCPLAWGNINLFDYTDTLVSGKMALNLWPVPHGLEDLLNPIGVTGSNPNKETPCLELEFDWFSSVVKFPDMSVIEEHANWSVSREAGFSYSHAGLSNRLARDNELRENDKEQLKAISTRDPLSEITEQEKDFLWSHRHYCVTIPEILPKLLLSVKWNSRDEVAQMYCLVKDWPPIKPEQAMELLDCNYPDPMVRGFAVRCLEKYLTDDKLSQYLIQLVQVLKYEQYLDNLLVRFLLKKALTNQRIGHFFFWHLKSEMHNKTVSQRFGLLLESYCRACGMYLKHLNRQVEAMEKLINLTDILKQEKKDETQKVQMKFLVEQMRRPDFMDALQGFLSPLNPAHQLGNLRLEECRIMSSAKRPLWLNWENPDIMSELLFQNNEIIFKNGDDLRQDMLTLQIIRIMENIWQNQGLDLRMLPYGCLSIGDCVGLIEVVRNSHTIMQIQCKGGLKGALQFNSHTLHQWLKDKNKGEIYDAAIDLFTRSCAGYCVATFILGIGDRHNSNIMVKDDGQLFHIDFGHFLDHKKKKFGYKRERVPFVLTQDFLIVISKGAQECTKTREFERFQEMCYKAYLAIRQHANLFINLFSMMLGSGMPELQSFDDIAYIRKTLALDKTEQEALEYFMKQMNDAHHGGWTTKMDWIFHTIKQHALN
Chain of PIK3CB (Human) (P42338 whole entry, looked up): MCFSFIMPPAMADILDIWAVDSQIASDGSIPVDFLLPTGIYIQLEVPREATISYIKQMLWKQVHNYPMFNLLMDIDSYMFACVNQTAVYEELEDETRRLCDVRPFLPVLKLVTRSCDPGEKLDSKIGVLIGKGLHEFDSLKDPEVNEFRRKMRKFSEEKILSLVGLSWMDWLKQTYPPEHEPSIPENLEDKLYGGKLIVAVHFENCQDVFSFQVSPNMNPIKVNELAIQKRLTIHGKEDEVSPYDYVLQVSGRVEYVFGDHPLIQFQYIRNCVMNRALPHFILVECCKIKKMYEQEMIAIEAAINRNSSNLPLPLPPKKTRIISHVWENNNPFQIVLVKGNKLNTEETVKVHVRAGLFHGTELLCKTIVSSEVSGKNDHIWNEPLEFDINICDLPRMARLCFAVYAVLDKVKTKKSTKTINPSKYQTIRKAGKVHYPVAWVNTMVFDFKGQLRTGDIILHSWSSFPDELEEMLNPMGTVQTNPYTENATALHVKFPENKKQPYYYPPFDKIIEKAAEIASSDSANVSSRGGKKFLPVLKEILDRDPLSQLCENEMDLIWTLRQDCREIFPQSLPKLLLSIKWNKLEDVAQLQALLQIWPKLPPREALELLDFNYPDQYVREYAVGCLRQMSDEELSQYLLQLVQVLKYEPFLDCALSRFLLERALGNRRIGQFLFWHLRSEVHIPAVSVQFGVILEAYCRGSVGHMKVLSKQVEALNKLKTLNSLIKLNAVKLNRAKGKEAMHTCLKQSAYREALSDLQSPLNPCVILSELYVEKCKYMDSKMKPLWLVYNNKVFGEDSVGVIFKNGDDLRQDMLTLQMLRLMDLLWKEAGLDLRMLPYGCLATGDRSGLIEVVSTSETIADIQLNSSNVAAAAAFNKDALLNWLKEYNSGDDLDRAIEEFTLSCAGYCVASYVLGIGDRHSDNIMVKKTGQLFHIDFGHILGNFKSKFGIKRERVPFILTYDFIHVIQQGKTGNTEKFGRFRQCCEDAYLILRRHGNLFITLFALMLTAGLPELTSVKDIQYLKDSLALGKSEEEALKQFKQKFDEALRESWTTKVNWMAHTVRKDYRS
Chain of PIK3CD (Human) (O00329 whole entry, looked up): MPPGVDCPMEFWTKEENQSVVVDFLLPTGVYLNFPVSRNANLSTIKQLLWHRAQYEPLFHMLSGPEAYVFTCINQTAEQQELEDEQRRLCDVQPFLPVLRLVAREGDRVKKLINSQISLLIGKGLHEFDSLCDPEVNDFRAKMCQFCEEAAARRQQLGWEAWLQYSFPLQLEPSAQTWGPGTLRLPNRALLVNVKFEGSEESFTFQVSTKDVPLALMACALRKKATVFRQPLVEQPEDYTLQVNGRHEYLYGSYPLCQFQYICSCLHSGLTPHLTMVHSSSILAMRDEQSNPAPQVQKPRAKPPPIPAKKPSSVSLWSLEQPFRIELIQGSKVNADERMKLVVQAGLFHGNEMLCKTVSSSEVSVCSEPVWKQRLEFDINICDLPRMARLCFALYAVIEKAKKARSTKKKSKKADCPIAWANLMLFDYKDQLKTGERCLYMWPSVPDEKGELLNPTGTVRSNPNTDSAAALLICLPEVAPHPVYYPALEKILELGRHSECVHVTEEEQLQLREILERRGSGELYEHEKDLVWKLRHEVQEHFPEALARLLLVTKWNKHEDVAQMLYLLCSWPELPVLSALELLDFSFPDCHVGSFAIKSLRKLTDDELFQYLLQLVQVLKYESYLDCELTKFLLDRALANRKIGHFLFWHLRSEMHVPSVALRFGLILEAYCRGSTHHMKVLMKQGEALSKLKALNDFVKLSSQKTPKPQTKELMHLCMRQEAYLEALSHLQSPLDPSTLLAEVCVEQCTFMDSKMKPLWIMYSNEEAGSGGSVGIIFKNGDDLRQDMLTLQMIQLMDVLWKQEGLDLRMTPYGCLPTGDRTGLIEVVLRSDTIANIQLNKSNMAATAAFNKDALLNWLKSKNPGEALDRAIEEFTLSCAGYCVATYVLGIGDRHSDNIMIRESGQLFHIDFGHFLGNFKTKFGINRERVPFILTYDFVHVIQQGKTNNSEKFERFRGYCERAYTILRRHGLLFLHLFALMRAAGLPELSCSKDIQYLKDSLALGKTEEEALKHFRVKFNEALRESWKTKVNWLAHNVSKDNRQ

Compound	IC50 [1]	IC50 [2]	IC50 [3]	IC50 [4]
Fc1ccc2[nH]ccc2c1-c1nc(N2CCOCC2)c2sc(CN3CCN(CC4CC4)CC3)cc2n1	0.91 µM	2.65 µM	0.005 µM	> 1000 µM
O=C1NC(=O)/C(=C/c2ccc(-c3ccc(F)cc3O)o2)S1	1.07 µM	> 20 µM	> 20 µM	–
CC(C)(O)CNc1ncc(-c2ccnc(Nc3ccnc(Cl)c3)n2)c(CC2CC2)n1	–	–	–	2 µM
CC(C)(C)NS(=O)(=O)c1cncc(-c2cc(F)c3nc(N)nn3c2)c1	> 10 µM	1.1 µM	8.2 µM	0.027 µM
C[C@@H]1COCCN1c1cc(=O)n2c(n1)N(Cc1cncc(Cl)c1)[C@H](C(F)(F)F)CC2	–	> 10 µM	> 10 µM	> 10 µM
Nc1ncc(-c2ccnc(Nc3ccncc3)n2)c(CC2CC2)n1	3.96 µM	–	1.2 µM	3.04 µM
Cc1ccccc1Oc1cccc2c(=O)cc(N3CCOCC3)[nH]c12	61 µM	0.13 µM	0.63 µM	> 100 µM
C[C@H](Nc1ncnc2nc[nH]c12)c1nc2ccc(F)cc2c(=O)n1-c1ccccc1	5.44 µM	–	0.012 µM	1.39 µM
CN(CCO)S(=O)(=O)c1cncc(-c2ccc3nc(NC(=O)NCCc4noc(C(C)(C)C)n4)sc3c2)c1	1.68 µM	0.062 µM	0.166 µM	0.003 µM

— the Kinase Knowledgebase extract (Sharma et al. 2016)
